Response vs control in vivo data for 41 molecules are collected here from patent publication US4797415A, “Benzofuran derivatives and use thereof for treating hyperuricemia” (Kotobuki Seiyaku Company Limited, priority 1982, dated 1989).

The test has as its system phenol red retention in circulation. Nature of the test: Uricosuric activity by phenol red retention test in mice. Format: in vivo, male mice. Particulars: Mus musculus, 1 h, mice, 30 min before 75 mg/kg phenol red, blood 60 min after phenol red. Here is the method: Blood samples were collected from the retro-orbital plexus into heparinized capillary tubes 60 minutes after the phenol red injection. The retention of phenol red in circulation was determined according to the method described in J. Med. Pharmaceu.
Benzobromarone was administered subcutaneously to mice in an amount of 200 mg./kg. as a control or standard.

Setting [1] is: po, p.o. 200 mg/kg, read-out: phenol red retention, percentage by comparison with the control group, P.O. (200 mg/kg).
The mark [2] stands for this setting: sc, s.c. 200 mg/kg, read-out: phenol red retention, percentage by comparison with the control group, S.C. (200 mg/kg).

Like-named read-outs stand apart in the source and are kept apart here.

With `CCc1oc2ccccc2c1C(=O)c1cc(C)c(OCC(=O)O)c(C)c1` [Compound 42, 2,6-dimethyl-4-(2-ethyl-3-benzofuroyl)phenoxyacetic acid], the response vs control in vivo at 200 mg/kg under setting [1] is 394 ± 44.4%.

For `CCOC(=O)COc1ccc(C(=O)c2c(CC)oc3ccccc23)c(C)c1C` [Compound 34, Ethyl 2,3-dimethyl-4-(2-ethyl-3-benzofuroyl)phenoxyacetate], the response vs control in vivo at 200 mg/kg under setting [1] came out at 124 ± 28.6%.

For the molecule `CCc1oc2ccccc2c1C(=O)c1ccc(O)c(C)c1C` [Compound 32, 2-ethyl-3-(2,3-dimethyl-4-hydroxybenzoyl)benzofuran], the response vs control in vivo at 200 mg/kg under setting [1] came out at 112 ± 18.8%.

Consider `CCOC(=O)COc1ccc(C(=O)c2c(CC)oc3ccccc23)cc1Cl` [Compound 20, Ethyl 2-chloro-4-(2-ethyl-3-benzofuroyl)phenoxyacetate], for which, under setting [2], the response vs control in vivo at 200 mg/kg was found to be 128 ± 16.7%.

Take `CCc1oc2ccccc2c1C(O)c1ccc(O)cc1` (stereo not drawn) [Compound 12, (2-ethyl-3-benzofuranyl)-4-hydroxyphenylmethanol]: under setting [2], the response vs control in vivo at 200 mg/kg was determined as 100 ± 21.4%.

Regarding `CCc1oc2ccccc2c1C(=O)c1ccc(O)c(Cl)c1` [Compound 19, 2-ethyl-3-benzofuranyl 3-chloro-4-hydroxyphenyl ketone], the response vs control in vivo at 200 mg/kg under setting [2] was 105 ± 19%.

`CCc1oc2ccccc2c1C(=O)c1cc(C)c(OCc2nnn[nH]2)cc1C` [Compound 47, 5-[2,5-dimethyl-4-(2-ethyl-3-benzofuroyl)phenoxymethyl]tetrazole]: the response vs control in vivo at 200 mg/kg under setting [1] was 232 ± 28%.

Consider `CCc1oc2ccccc2c1C(=O)c1ccc(OCc2nnn[nH]2)cc1` [Compound 43, 5-[4-(2-ethyl-3-benzofuroyl)phenoxymethyl]tetrazole], for which the response vs control in vivo at 200 mg/kg under setting [1] amounted to 430 ± 80%.

With `CCOC(=O)COc1cc(C)c(C(=O)c2c(CC)oc3ccccc23)cc1C` [Compound 38, Ethyl 2,5-dimethyl-4-(2-ethyl-3-benzofuroyl)phenoxyacetate], the response vs control in vivo at 200 mg/kg under setting [1] was 324 ± 19%.

As to `CCOC(=O)COc1c(C)cc(C(=O)c2c(CC)oc3ccccc23)cc1C` [Compound 41, Ethyl 2,6-dimethyl-4-(2-ethyl-3-benzofuroyl)phenoxyacetate], under setting [1], the response vs control in vivo at 200 mg/kg worked out at 183 ± 27.8%.

In the case of `CCOC(=O)COc1ccc(C(=O)c2c(CC)sc3ccccc23)cc1` [Compound 30, Ethyl 4-(2-ethyl-3-benzothenoyl)phenoxyacetate], the response vs control in vivo at 200 mg/kg under setting [2] was 85.7 ± 14.3%.

For `CCc1oc2ccccc2c1C(=O)c1ccc(OCC(N)=O)cc1` [Compound 7, 4-(2-ethyl-3-benzofuroyl)phenoxyacetamide], the response vs control in vivo at 200 mg/kg came out at 104 ± 8.3% under setting [1] and 123 ± 23.1% under setting [2].

Regarding `CCOC(=O)COc1ccc(C(=O)c2c(C)oc3ccccc23)cc1` [Compound 17, Ethyl 4-(2-methyl-3-benzofuroyl)phenoxyacetate], the response vs control in vivo at 200 mg/kg under setting [1] came to 105 ± 10% and the response vs control in vivo at 200 mg/kg under setting [2] was 115 ± 19.2%.

As for `CCc1oc2ccccc2c1C(=O)c1ccc(OCc2nnn[nH]2)c(Cl)c1` [Compound 44, 5-[2-chloro-4-(2-ethyl-3-benzofuroyl)phenoxymethyl]tetrazole], the response vs control in vivo at 200 mg/kg under setting [1] stood at 175 ± 17.9%.

Turning to `CCc1sc2ccccc2c1C(=O)c1ccc(O)cc1` [Compound 29, 2-ethyl-3-(4-hydroxybenzoyl)thianaphthene], the response vs control in vivo at 200 mg/kg under setting [2] was 100 ± 21.4%.

Regarding `CCc1oc2ccccc2c1C(=O)c1cccc(OCC(=O)O)c1` [Compound 2, 3-(2-ethyl-3-benzofuroyl)phenoxyacetic acid], the response vs control in vivo at 200 mg/kg under setting [2] came out at 180 ± 15.4%.

For `CCc1oc2ccccc2c1C(=O)c1ccc(OCc2nnn[nH]2)c(C)c1` [Compound 45, 5-[2-methyl-4-(2-ethyl-3-benzofuroyl)phenoxymethyl]tetrazole], under setting [1], the response vs control in vivo at 200 mg/kg came to 218 ± 21.4%.

On to `CCc1oc2ccccc2c1C(=O)c1ccc(OCCC(=O)O)cc1` [Compound 4, 4-(2-ethyl-3-benzofuroyl)phenoxypropionic acid], for which, under setting [2], the response vs control in vivo at 200 mg/kg was found to be 143 ± 19%.

With `CCc1oc2ccccc2c1C(=O)c1ccccc1OCC(=O)O` [Compound 1, 2-(2-ethyl-3-benzofuroyl)phenoxyacetic acid], the response vs control in vivo at 200 mg/kg under setting [2] was 152 ± 15.2%.

In the case of `CCc1oc2ccccc2c1C(=O)c1ccc(OC(C)C(=O)O)cc1` (stereo not drawn) [Compound 5, 4-(2-ethyl-3-benzofuroyl)phenoxy-2-methylacetic acid], the response vs control in vivo at 200 mg/kg was 176 ± 17.6% under setting [1] and 158 ± 15.1% under setting [2].

As to `CCc1oc2ccccc2c1C(=O)c1ccc(O)c(C)c1` [Compound 23, 2-ethyl-3-benzofuranyl 3-methyl-4-hydroxyphenyl ketone], under setting [2], the response vs control in vivo at 200 mg/kg was determined as 81 ± 14.3%.

Consider `Cc1oc2ccccc2c1C(=O)c1ccc(O)cc1` [Compound 16, 2-methyl-3-(4-hydroxybenzoyl)benzofuran], for which the response vs control in vivo at 200 mg/kg stood at 112 ± 12.5% under setting [1] and 111 ± 11.1% under setting [2].

Turning to `CCc1sc2ccccc2c1C(=O)c1ccc(OCC(=O)O)cc1` [Compound 31, 4-(2-ethyl-3-benzothenoyl)phenoxyacetic acid], the response vs control in vivo at 200 mg/kg by setting is: under setting [1], 162 ± 31.3%; under setting [2], 144 ± 22.2%.

For `CCc1oc2ccccc2c1C(=O)c1ccc(OCC(=O)NCC(N)=O)cc1` [Compound 10, 4-(2-ethyl-3-benzofuroyl)phenoxyacetoglycinamide], the response vs control in vivo at 200 mg/kg was 132 ± 26.3% under setting [1] and 123 ± 23.1% under setting [2].

As for `CCCCOC(=O)COc1ccc(C(OCCCC)c2c(CC)oc3ccccc23)cc1` (stereo not drawn) [Compound 15, Butyl 4-(2-ethyl-3-butoxymethylbenzofuranyl)phenoxyacetate], the response vs control in vivo at 200 mg/kg by setting is: under setting [1], 175 ± 35%; under setting [2], 165 ± 34.6%.

On to `CCc1oc2ccccc2c1C(=O)c1ccc(OCc2nnn[nH]2)c(C)c1C` [Compound 46, 5-[2,3-dimethyl-4-(2-ethyl-3-benzofuroyl)phenoxymethyl]tetrazole], for which the response vs control in vivo at 200 mg/kg under setting [1] turned out to be 240 ± 64%.

As for `CCc1oc2ccccc2c1C(=O)c1ccc(OCC(=O)NO)cc1` [Compound 8, 4-(2-ethyl-3-benzofuroyl)phenoxyacetohydroxamide], the response vs control in vivo at 200 mg/kg reads like this: under setting [1], 129 ± 17.6%; under setting [2], 167 ± 26.6%.

Regarding `C=C(CC(=O)c1c(CC)oc2ccccc12)C(=O)O` [Compound 21, 2-methylene-4-oxo-4-(2-ethyl-3-benzofuranyl)butyric acid], the response vs control in vivo at 200 mg/kg under setting [1] is 165 ± 21.7% and the response vs control in vivo at 200 mg/kg under setting [2] came out at 100 ± 13.6%.

As to `CCOC(=O)COc1ccc(C(=O)c2c(CC)oc3ccccc23)cc1` [Compound 6, Ethyl 4-(2-ethyl-3-benzofuroyl)phenoxyacetate], the response vs control in vivo at 200 mg/kg was determined as 119 ± 2.3% under setting [1] and 207 ± 32.5% under setting [2].

Turning to `CCc1oc2ccccc2c1C(=O)c1ccc(OCC(=O)NCC(=O)OC)cc1` [Compound 9, Methyl 4-(2-ethyl-3-benzofuroyl)phenoxyacetoglycinate], the response vs control in vivo at 200 mg/kg runs as follows: under setting [1], 153 ± 15.8%; under setting [2], 125 ± 18.8%.

As to `CCOC(=O)COc1ccc(C(=O)c2c(CC)oc3ccccc23)cc1[N+](=O)[O-]` [Compound 27, Ethyl 2-nitro-4-(2-ethyl-3-benzofuroyl)phenoxyacetate], under setting [2], the response vs control in vivo at 200 mg/kg was 111 ± 11.1%.

Turning to `CCc1oc2ccccc2c1C(=O)c1ccc(OCC(=O)OC)c(C)c1C` [Compound 33, Methyl 2,3-dimethyl-4-(2-ethyl-3-benzofuroyl)phenoxyacetate], under setting [1], the response vs control in vivo at 200 mg/kg amounted to 133 ± 15.6%.

As to `CCc1oc2ccccc2c1C(=O)c1cc(C)c(OCc2nnn[nH]2)c(C)c1` [Compound 48, 5-[2,6-dimethyl-4-(2-ethyl-3-benzofuroyl)phenoxymethyl]tetrazole], the response vs control in vivo at 200 mg/kg under setting [1] was found to be 296 ± 56%.

With `CCc1oc2ccccc2c1C(=O)c1cc(C)c(O)cc1C` [Compound 36, 2-ethyl-3-(2,5-dimethyl-4-hydroxybenzoyl)benzofuran], the response vs control in vivo at 200 mg/kg under setting [1] was determined as 131 ± 15.6%.

For the molecule `CCOC(=O)COc1ccc(C(=O)c2c(CC)oc3ccccc23)cc1C` [Compound 24, Ethyl 2-methyl-4-(2-ethyl-3-benzofuroyl)phenoxyacetate], the response vs control in vivo at 200 mg/kg under setting [2] was 172 ± 27.7%.

With `CCc1oc2ccccc2c1C(=O)c1cc(C)c(OCC(=O)OC)cc1C` [Compound 37, Methyl 2,5-dimethyl-4-(2-ethyl-3-benzofuroyl)phenoxyacetate], under setting [1], the response vs control in vivo at 200 mg/kg turned out to be 254 ± 15.6%.

In the case of `CCOC(=O)COc1ccc(C(O)c2c(CC)oc3ccccc23)cc1` (stereo not drawn) [Compound 13, Ethyl 4-(2-ethyl-3-hydroxymethylbenzofuranyl)phenoxyacetate], the response vs control in vivo at 200 mg/kg under setting [2] was determined as 114 ± 14.3%.

On to `Cc1oc2ccccc2c1C(=O)c1ccc(OCC(=O)O)cc1` [Compound 18, 4-(2-methyl-3-benzofuroyl)phenoxyacetic acid], for which the response vs control in vivo at 200 mg/kg under setting [1] is 135 ± 40% and the response vs control in vivo at 200 mg/kg under setting [2] was 112 ± 15.4%.

As for `CCOC(=O)COc1ccc(C(OCC)c2c(CC)oc3ccccc23)cc1` (stereo not drawn) [Compound 14], the response vs control in vivo at 200 mg/kg under setting [1] was found to be 120 ± 15% and the response vs control in vivo at 200 mg/kg under setting [2] was found to be 135 ± 34.6%.

`CCc1oc2ccccc2c1C(=O)c1ccc(OCC(=O)OC)cc1` [Compound 11, Methyl 4-(2-ethyl-3-benzofuroyl)phenoxyacetate]: under setting [2], the response vs control in vivo at 200 mg/kg was found to be 114 ± 9.5%.

On to `CCc1oc2ccccc2c1C(=O)c1cc(C)c(O)c(C)c1` [Compound 40, 2-ethyl-3-(3,5-dimethyl-4-hydroxybenzoyl)benzofuran], for which the response vs control in vivo at 200 mg/kg under setting [1] was determined as 183 ± 22.2%.
